Measured values from ChEMBL document CHEMBL5230101, “Unique Domain for a Unique Target: Selective Inhibitors of Host Cell DDX3X to Fight Emerging Viruses” (J Med Chem, 2020).
The source made the active and inactive calls. The rule behind the calls is not given here.

Key:
[1] = biological target: ATP-dependent RNA helicase DDX3X (Homo sapiens) (UniProt O00571); assay: Inhibition of human recombinant full length DDX3X helicase activity expressed in Escherichia coli using dsRNA as substrate measured after 40 mins by FRET assay
Chain of ATP-dependent RNA helicase DDX3X (Homo sapiens) (O00571 2-662 limits assumed): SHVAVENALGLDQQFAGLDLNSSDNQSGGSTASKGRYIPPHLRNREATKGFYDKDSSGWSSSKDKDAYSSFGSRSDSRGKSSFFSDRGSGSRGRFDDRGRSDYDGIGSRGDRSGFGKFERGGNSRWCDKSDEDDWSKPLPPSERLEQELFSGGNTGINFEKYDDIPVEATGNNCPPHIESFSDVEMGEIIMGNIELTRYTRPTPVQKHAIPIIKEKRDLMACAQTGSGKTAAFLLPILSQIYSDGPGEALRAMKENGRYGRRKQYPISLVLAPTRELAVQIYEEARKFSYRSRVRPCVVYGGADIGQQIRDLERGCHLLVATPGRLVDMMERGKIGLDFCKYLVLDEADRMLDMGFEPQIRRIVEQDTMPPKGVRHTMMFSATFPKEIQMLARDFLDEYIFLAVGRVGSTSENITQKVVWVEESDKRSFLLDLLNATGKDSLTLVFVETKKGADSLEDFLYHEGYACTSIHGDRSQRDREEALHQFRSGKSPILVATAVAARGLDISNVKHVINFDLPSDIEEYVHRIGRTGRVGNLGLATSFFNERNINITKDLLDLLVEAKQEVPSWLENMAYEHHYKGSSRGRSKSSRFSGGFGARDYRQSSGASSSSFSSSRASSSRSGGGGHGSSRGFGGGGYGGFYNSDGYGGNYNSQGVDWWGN

[2] = organism: Homo sapiens; assay: Inhibition of human recombinant full length DDX3X E256A mutant helicase activity using dsRNA as substrate measured after 40 mins by FRET assay
[3] = organism: Homo sapiens; assay: Inhibition of human recombinant full length DDX3X R262A mutant helicase activity using dsRNA as substrate measured after 40 mins by FRET assay
[4] = biological target: T1, ATP-dependent RNA helicase DDX1 (Homo sapiens) (UniProt Q92499); assay: Inhibition of human DDX1 helicase activity
T1 sequence (whole entry): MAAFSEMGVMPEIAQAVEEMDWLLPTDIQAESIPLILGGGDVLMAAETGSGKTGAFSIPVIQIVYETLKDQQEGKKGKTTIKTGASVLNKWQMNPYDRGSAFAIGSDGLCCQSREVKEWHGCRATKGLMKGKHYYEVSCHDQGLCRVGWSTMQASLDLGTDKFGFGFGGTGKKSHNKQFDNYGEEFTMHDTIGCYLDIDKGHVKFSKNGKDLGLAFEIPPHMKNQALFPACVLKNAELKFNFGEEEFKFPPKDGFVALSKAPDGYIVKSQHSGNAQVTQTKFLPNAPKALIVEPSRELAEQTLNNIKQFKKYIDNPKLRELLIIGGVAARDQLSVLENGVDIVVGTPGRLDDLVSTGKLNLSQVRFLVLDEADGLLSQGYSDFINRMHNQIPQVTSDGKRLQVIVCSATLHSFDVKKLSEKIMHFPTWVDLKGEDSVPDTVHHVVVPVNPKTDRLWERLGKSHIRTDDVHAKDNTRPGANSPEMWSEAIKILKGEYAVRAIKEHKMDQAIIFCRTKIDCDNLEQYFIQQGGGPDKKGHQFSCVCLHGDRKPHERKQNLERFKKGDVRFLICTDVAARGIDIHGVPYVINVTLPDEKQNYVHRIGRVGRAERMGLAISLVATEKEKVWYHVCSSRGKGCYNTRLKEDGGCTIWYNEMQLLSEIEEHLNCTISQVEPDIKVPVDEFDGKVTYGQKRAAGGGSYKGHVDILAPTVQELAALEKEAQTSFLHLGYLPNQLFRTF

[5] = tested on: Arabidopsis thaliana; assay: Inhibition of Arabidopsis thaliana STRS2 helicase activity
[6] = tested on: Hepacivirus hominis; assay: Inhibition of Hepatitis C virus NSP 3 helicase activity
[7] = tested on: dengue virus type 2; assay: Antiviral activity against DENV2 New Guinea C strain infected in human Huh-7 cells measured after 72 hrs by immunodetection assay; type: functional, organism-based; conditions: Huh-7, 72 h
[8] = tested on: West Nile virus; assay: Antiviral activity against WNV infected in human Huh-7 cells preincubated with cells for 1 hr and measured after 4 days by plaque reduction assay; type: functional, organism-based
[9] = tested on: Huh-7; assay: Cytotoxicity against human Huh-7 cells incubated for 72 hrs by Cell Titer-Glo luminescence assay; type: functional
[10] = tested on: Huh-7; assay: Cytotoxicity against human Huh-7 cells incubated for 3 days by MTT assay; type: functional; conditions: Huh-7, 72 h, time 3 day

Q: Which ID50 [1] does the source give for `CCOC(=O)Nc1ccc2c(c1)N(C(=O)CCN(CC)CC)c1ccccc1CC2` here?
A: The ID50 was “inactive”.

Q: With `NCC(O)CN(c1ccccc1)c1ccccc1` (racemic) [listing 1 of 2 here] as the compound, how does the ID50 [1] read?
A: Its ID50 is 0.002 µM.

Q: What about the ID50 [2] of the same compound?
A: The ID50 was 73 µM.

Q: What about the ID50 [3] of the same compound?
A: Its ID50 is 0.001 µM.

Q: What about the ID50 [4] of the same compound?
A: Its ID50 is 18 µM.

Q: And the ID50 [5]?
A: The ID50 was greater than 100 µM.

Q: And the ID50 [6]?
A: Its ID50 is greater than 100 µM.

Q: With `CNC(=O)N1c2ccccc2CCc2ccccc21` as the compound, how does the ID50 [1] read?
A: The ID50 was “inactive”.

Q: With `OC(C#CCN1CCCCC1)(c1ccccc1)c1ccccc1` as the compound, how does the ID50 [1] read?
A: The ID50 was “inactive”.

Q: With `COc1ccc(CN)cc1Cn1cccn1` as the compound, how does the ID50 [1] read?
A: Its ID50 is “inactive”.

Q: Which ID50 [1] does the source give for `NCC(O)CN(c1ccccc1)c1ccccc1` (stereo not drawn) here?
A: Its ID50 is 0.7 µM.

Q: How did the IC50 [7] turn out when `NCC(O)CN(c1ccccc1)c1ccccc1` (racemic) [listing 2 of 2 here] was run?
A: The IC50 was 7.9 µM.

Q: What about the IC50 [8] of the same compound?
A: Its IC50 is 2.3 µM.

Q: And the CC50 [9]?
A: The CC50 was 100 µM.

Q: What about the CC50 [10] of the same compound?
A: Its CC50 is greater than 100 µM.

Q: What does the source list for `NC(=O)c1ncn([C@@H]2O[C@H](CO)[C@@H](O)[C@H]2O)n1` [RIBAVIRIN]?
A: IC50 [8]: 91.5 µM; CC50 [9]: > 100 µM; CC50 [10]: > 100 µM

Q: How did the ID50 [1] turn out when `Nc1ccc(Nc2nc3ccccc3[nH]2)cc1` was run?
A: The ID50 was “inactive”.

Q: For `Nc1ccc(S(=O)(=O)c2ccccc2)cc1`, which ID50 [1] is on record?
A: Its ID50 is 200 µM.

Q: Which ID50 [1] does the source give for `CC(N)Cc1cn(Cc2ccccc2)c2ccccc12` (stereo not drawn) here?
A: The ID50 was “inactive”.

Q: Which ID50 [1] does the source give for `NC[C@H](O)CN(c1ccccc1)c1ccccc1` here?
A: The ID50 was 0.007 µM.

Q: What about the IC50 [7] of the same compound?
A: Its IC50 is 12.6 µM.

Q: And the IC50 [8]?
A: The IC50 was 0.9 µM.

Q: What about the CC50 [9] of the same compound?
A: Its CC50 is 120 µM.

Q: And the CC50 [10]?
A: The CC50 was greater than 100 µM.

Q: Which ID50 [1] does the source give for `NC[C@@H](O)CN(c1ccccc1)c1ccccc1` here?
A: Its ID50 is 0.006 µM.

Q: And the ID50 [2]?
A: Its ID50 is 0.3 µM.

Q: What about the ID50 [3] of the same compound?
A: Its ID50 is 0.004 µM.

Q: And the ID50 [4]?
A: Its ID50 is 58 µM.

Q: And the ID50 [5]?
A: The ID50 was greater than 100 µM.

Q: And the ID50 [6]?
A: The ID50 was greater than 100 µM.

Q: And the IC50 [7]?
A: The IC50 was 6.3 µM.

Q: What about the IC50 [8] of the same compound?
A: The IC50 was 0.88 µM.

Q: What about the CC50 [9] of the same compound?
A: The CC50 was 79 µM.

Q: And the CC50 [10]?
A: Its CC50 is greater than 100 µM.

Q: With `CC1CC(C)CN(S(=O)(=O)c2ccc(N)cc2)C1` (stereo not drawn) as the compound, how does the ID50 [1] read?
A: The ID50 was “inactive”.

Q: Which ID50 [1] does the source give for `CC(=O)N1c2ccccc2CCc2cc([N+](=O)[O-])ccc21` here?
A: Its ID50 is “inactive”.
